Results on 9 molecules are retold here after ChEMBL document CHEMBL4270494, “Recent insights into synthetic β-carbolines with anti-cancer activities” (Eur J Med Chem, 2017).

pIC50: −log10 of the molar value. Structures can show the parent of a compound that is named as a salt.

In one assay the test system is NCI-H1299. Nature of the assay: Cytotoxicity against human NCI-H1299 cells. The format is functional, cell-based.
For the next assay, the system named is A-375. Nature of the assay: Cytotoxicity against human A375 cells. In kind it is functional, cell-based.
In another assay the test system is IMR-90. As to the kind of experiment: Cytotoxicity against human IMR90 cells. In kind it is functional, cell-based.
A further assay has as its system HT-29. Nature of the assay: Cytotoxicity against human HT-29 cells assessed as reduction in cell viability incubated for 48 hrs by MTT assay. In kind it is functional, cell-based. To be noted: HT-29, 48 h.
The next assay relates to A549. As to the kind of experiment: Cytotoxicity against human A549 cells assessed as reduction in cell viability incubated for 48 hrs by MTT assay. In kind it is functional, cell-based. To be noted: A549, 48 h.
Another assay has as its system B16. As to the kind of experiment: Cytotoxicity against mouse B16 cells assessed as reduction in cell viability incubated for 48 hrs by MTT assay. The format is functional, cell-based. Particulars: B16, 48 h.
The test system of a further assay is PC-3. Nature of the assay: Cytotoxicity against human PC3 cells assessed as reduction in cell viability incubated for 48 hrs by MTT assay. The format is functional, cell-based. To be noted: PC-3, 48 h.
In assay [1] the test system is MCF7. Nature of the assay: Cytotoxicity against human MCF7 cells by MTT assay. The format is functional, cell-based.
Assay [2] deals with MCF7. As to the kind of experiment: Induction of apoptosis in human MCF7 cells by Annexin V-FITC dual staining based flow cytometry (reference value: 0.03%). In kind it is functional.
The test system of another assay is CCRF S-180. As to the kind of experiment: Antitumor activity against mouse S180 cells implanted in ICR mouse assessed as inhibition of tumor growth at 0.1 umol/kg, ip for 7 consecutive days starting 24 hrs after tumor cell inoculation relative to untreated control. In kind it is functional. To be noted: CCRF S-180, ip, read-out: TGI.
The test system of the next assay is HeLa. Nature of the assay: Cytotoxicity against human HeLa cells by MTT assay. In kind it is functional, cell-based.
The subject of a further assay is HepG2. Nature of the assay: Cytotoxicity against human HepG2 cells by MTT assay. In kind it is functional, cell-based.
A further assay concerns HL-60. As to the kind of experiment: Cytotoxicity against human HL60(TB) cells incubated for 48 hrs by SRB assay. The format is functional. To be noted: HL-60, 48 h, read-out: LC50 (the source's name).

Consider `c1ccc2c(c1)[nH]c1c(CNCCOCCNCc3nccc4c3[nH]c3ccccc34)nccc12`, for which the pIC50 with NCI-H1299 was 5.80; with A-375, 5.52; with IMR-90 it was 3.70 to 5.80. With `COc1cc(C(=O)/C=C/c2cc3c([nH]c4ccccc43)c(-c3cc(OC)c(OC)c(OC)c3)n2)cc(OC)c1OC`, the negative-log IC50 (pIC50) with HT-29 is 4.64; with A549, 5.28; in the assay on B16, 5.20; in the assay with PC-3 it was 4.71.

In the assay with MCF7 [1], `O=C(/C=C/c1cc2c([nH]c3ccccc32)c(-c2ccc(C(F)(F)F)cc2)n1)c1ccco1` showed a pIC50 of 5.28 to 5.81. The Activity in the assay with MCF7 [2] turned out to be 58.29%. Turning to `COc1cc(-c2nc(C(=O)N[C@@H](Cc3c[nH]c4ccccc34)C(=O)N[C@@H](Cc3c[nH]c4ccccc34)C(=O)N[C@@H](CO)C(=O)OCc3ccccc3)cc3c2[nH]c2ccccc23)ccc1O`, in the assay with CCRF S-180, the inhibition in vivo at 0.1 µmol/kg worked out at 62.9%. For `CC(=O)N1N=C(c2ccco2)CC1c1cc2c([nH]c3ccccc32)c(-c2ccc(C(F)(F)F)cc2)n1` (configuration not stated), the pIC50 in the assay on MCF7 [1] is 5.28 to 5.81. Moreover, the Activity with MCF7 [2] is on record as 62.64%. In the case of `COC(=O)c1cc2c([nH]c3ccccc32)c(-c2ccc(OCc3cn(-c4cccc(Cl)c4Cl)nn3)cc2)n1`, the negative-log IC50 (pIC50) is 4.34 with HeLa and 4.49 in the assay on HepG2.

In the case of `COc1ccc2[nH]cc(-c3nccc4c3[nH]c3ccc(OC)cc34)c2c1`, the CC50 with HL-60 stood at 4.2 µM. In the case of `CC[C@H](C)[C@H](NC(=O)[C@H](Cc1c[nH]c2ccccc12)NC(=O)[C@H](Cc1c[nH]c2ccccc12)NC(=O)c1cc2c([nH]c3ccccc32)c(-c2ccc(O)c(OC)c2)n1)C(=O)OCc1ccccc1`, the inhibition in vivo at 0.1 µmol/kg in the assay on CCRF S-180 turned out to be 63.4%.

With `COc1cccc2c1C(=O)c1c(O)c3c(c(O)c1C2=O)C[C@@](O)(C(=O)CO)C[C@@H]3O[C@H]1C[C@H](N)[C@H](O)[C@H](C)O1` [DOXORUBICIN HYDROCHLORIDE], in the assay on CCRF S-180, the inhibition in vivo at 0.1 µmol/kg was 61.1%.
